Data published in US6995143B2, “Macrolides with antibacterial activity” (Basilea Pharmaceutica AG, priority 2002, dated 2006).
Values after ≈ are worked out from the molar mass of the structure shown.

Key:
Type in all cases: cell-based
[1] = system: Haemophilus influenzae B1501; test: MIC, standard agar dilution method using HTM medium
Excerpt: (§1) The biological activities of compounds of the present invention against Haemophilus influenzae have been determined by standard agar dilution method using HTM medium (National Committee for Clinical Laboratory Standards. 2000. Methods for Dilution Antimicrobial Susceptibility Tests for Bacteria that Grow Aerobically, 5th edition. Approved standard M7-A5. National Committee for Clinical Laboratory Standards, Wayne, Pa.).

[2] = system: Haemophilus influenzae QK50; test: as above
Excerpt: as §1

[3] = system: Haemophilus influenzae 12214; test: as above
Excerpt: as §1

[4] = system: Haemophilus influenzae QK12/87; test: as above
Excerpt: as §1

[5] = system: Escherichia coli ATCC 25922; test: MIC, standard microdilution technique
Excerpt: (§2) The antibacterial activities of the compounds have been determined by standard microdilution technique (National Committee for Clinical Laboratory Standards. 2000. Methods for Dilution Antimicrobial Susceptibility Tests for Bacteria that Grow Aerobically, 5th edition. Approved standard M7-A5. National Committee for Clinical Laboratory Standards, Wayne, Pa.).

[6] = system: Staphylococcus aureus ATCC 29213; test: MIC, standard microdilution technique
Excerpt: as §2

[7] = system: Staphylococcus aureus 745; test: MIC, standard microdilution technique
Excerpt: as §2

[8] = system: Streptococcus pneumoniae SL199T; test: MIC, standard microdilution technique
Excerpt: as §2

[9] = system: Streptococcus pneumoniae l/l; test: MIC, standard microdilution technique
Excerpt: as §2

[10] = system: Streptococcus pneumoniae 12288; test: MIC, standard microdilution technique
Excerpt: as §2

[11] = system: Staphylococcus aureus 1086; test: MIC, standard microdilution technique
Excerpt: as §2

[12] = system: Streptococcus pneumoniae ¼; test: MIC, standard microdilution technique
Excerpt: as §2

SMILES	minimum inhibitory concentration (MIC), Strain M [1]	minimum inhibitory concentration (MIC), Strain L [2]	minimum inhibitory concentration (MIC), Strain K [3]	minimum inhibitory concentration (MIC), Strain I [4]	minimum inhibitory concentration (MIC), Strain D [5]	minimum inhibitory concentration (MIC), Strain A [6]	minimum inhibitory concentration (MIC), Strain C [7]	minimum inhibitory concentration (MIC), Strain G [8]	minimum inhibitory concentration (MIC), Strain E [9]	minimum inhibitory concentration (MIC), Strain H [10]	minimum inhibitory concentration (MIC), Strain B [11]	minimum inhibitory concentration (MIC), Strain F [12]	also measured
CC[C@H]1OC(=O)[C@H](C)C(=O)[C@H](C)[C@@H](O[C@@H]2O[C@H](C)C[C@H](N(C)C)[C@H]2O)[C@](C)(OC)C[C@@H](C)C(=O)[C@H](C)[C@H]2[C@@H](SCCC(=O)Nc3cnc4ccccc4c3)C(=O)O[C@@]21C (single isomer, unassigned) [Example 42]	16 µg/mL (≈ 19 µM)	16 µg/mL (≈ 19 µM)	16 µg/mL (≈ 19 µM)	16 µg/mL (≈ 19 µM)	>32 µg/mL	0.125 µg/mL (≈ 0.148 µM)	>32 µg/mL	32 µg/mL (≈ 38 µM)	<=0.06 μg/ml	>32 µg/mL	0.125 µg/mL (≈ 0.148 µM)	32 µg/mL (≈ 38 µM)	
CC[C@H]1OC(=O)[C@H](C)C(=O)[C@H](C)[C@@H](O[C@@H]2O[C@H](C)C[C@H](N(C)C)[C@H]2O)[C@](C)(OC)C[C@@H](C)C(=O)[C@H](C)[C@H]2[C@@H](SCCNc3ccc(C#N)cn3)C(=O)O[C@@]21C (single isomer, unassigned) [Example 46, (3R or S, 3aR, 4R or S, 6R, 8R, 9R, 10R, 12R, 15R, 15aS) -3-[[2-[(5-Cyanopyridin-2-yl)amino]ethyl]thio]-15-ethyloctahydro-8-methoxy-4,6,8,10,12,15a-hexamethyl-9-[[-3,4,6-trideoxy-3-(dimethylamino)-β-D-xylo-hexopyranosyl]oxy]-2H-furo [2,3-c] oxacyclotetradecin-2,5,11,13 (3H,6H,12H)-tetrone]													MIC ([1]; read-out: minimum inhibitory concentration (MIC), Strain M): 1 µg/mL (≈ 1.27 µM); MIC ([2]; read-out: minimum inhibitory concentration (MIC), Strain L): 4 µg/mL (≈ 5.07 µM); MIC ([3]; read-out: minimum inhibitory concentration (MIC), Strain K): 2 µg/mL (≈ 2.53 µM); MIC ([4]; read-out: minimum inhibitory concentration (MIC), Strain I): 1 µg/mL (≈ 1.27 µM); MIC ([5]; ATCC25922, read-out: minimum inhibitory concentration (MIC), Strain D): > 32 µg/mL; MIC ([6]; ATCC29213, read-out: minimum inhibitory concentration (MIC), Strain A): ≤ 0.06 µg/mL; MIC ([7]; read-out: minimum inhibitory concentration (MIC), Strain C): > 32 µg/mL; MIC ([8]; read-out: minimum inhibitory concentration (MIC), Strain G): 4 µg/mL (≈ 5.07 µM); MIC ([9]; read-out: minimum inhibitory concentration (MIC), Strain E): ≤ 0.06 µg/mL; MIC ([10]; read-out: minimum inhibitory concentration (MIC), Strain H): 32 µg/mL (≈ 40.6 µM); MIC ([11]; read-out: minimum inhibitory concentration (MIC), Strain B): ≤ 0.06 µg/mL; MIC ([12]; read-out: minimum inhibitory concentration (MIC), Strain F): ≤ 0.06 µg/mL
CC[C@H]1OC(=O)[C@H](C)C(=O)[C@H](C)[C@@H](O[C@@H]2O[C@H](C)C[C@H](N(C)C)[C@H]2O)[C@](C)(OC)C[C@@H](C)C(=O)[C@H](C)[C@H]2[C@@H](SCCNC(=O)c3ccc4ncccc4c3)C(=O)O[C@@]21C (single isomer, unassigned) [Example 47]	2 µg/mL (≈ 2.38 µM)	4 µg/mL (≈ 4.75 µM)	8 µg/mL (≈ 9.5 µM)	4 µg/mL (≈ 4.75 µM)	>32 µg/mL	0.125 µg/mL (≈ 0.148 µM)	>32 µg/mL	8 µg/mL (≈ 9.5 µM)	<=0.06 μg/ml	>32 µg/mL	<=0.06 μg/ml	<=0.06 μg/ml	
CC[C@H]1OC(=O)[C@H](C)C(=O)[C@H](C)[C@@H](O[C@@H]2O[C@H](C)C[C@H](N(C)C)[C@H]2O)[C@](C)(OC)C[C@@H](C)C(=O)[C@H](C)[C@H]2[C@@H](SCCNC(=O)c3ccc(-n4ccnc4)nc3)C(=O)O[C@@]21C (single isomer, unassigned) [Example 48]	16 µg/mL (≈ 18.6 µM)	16 µg/mL (≈ 18.6 µM)	32 µg/mL (≈ 37.3 µM)	16 µg/mL (≈ 18.6 µM)	>32 µg/mL	0.25 µg/mL (≈ 0.291 µM)	>32 µg/mL	>32 µg/mL	<=0.06 μg/ml	>32 µg/mL	0.25 µg/mL (≈ 0.291 µM)	>32 µg/mL	
CC[C@H]1OC(=O)[C@H](C)C(=O)[C@H](C)[C@@H](O[C@@H]2O[C@H](C)C[C@H](N(C)C)[C@H]2O)[C@](C)(OC)C[C@@H](C)C(=O)[C@H](C)[C@H]2[C@@H](SCCNC(=O)c3cccc4cccnc34)C(=O)O[C@@]21C (single isomer, unassigned) [Example 49]	4 µg/mL (≈ 4.75 µM)	4 µg/mL (≈ 4.75 µM)	16 µg/mL (≈ 19 µM)	4 µg/mL (≈ 4.75 µM)	>32 µg/mL	<=0.06 μg/ml	>32 µg/mL	2 µg/mL (≈ 2.38 µM)	<=0.06 μg/ml	16 µg/mL (≈ 19 µM)	<=0.06 μg/ml	<=0.06 μg/ml	
CC[C@H]1OC(=O)[C@H](C)C(=O)[C@H](C)[C@@H](O[C@@H]2O[C@H](C)C[C@H](N(C)C)[C@H]2O)[C@](C)(OC)C[C@@H](C)C(=O)[C@H](C)[C@H]2[C@@H](SCCNC(=O)c3ccc(-n4cccn4)nc3)C(=O)O[C@@]21C (single isomer, unassigned) [Example 50]	4 µg/mL (≈ 4.66 µM)	8 µg/mL (≈ 9.32 µM)	16 µg/mL (≈ 18.6 µM)	8 µg/mL (≈ 9.32 µM)	>32 µg/mL	0.25 µg/mL (≈ 0.291 µM)	>32 µg/mL	32 µg/mL (≈ 37.3 µM)	<=0.06 μg/ml	>32 µg/mL	0.125 µg/mL (≈ 0.146 µM)	32 µg/mL (≈ 37.3 µM)	
CC[C@H]1OC(=O)[C@H](C)C(=O)[C@H](C)[C@@H](O[C@@H]2O[C@H](C)C[C@H](N(C)C)[C@H]2O)[C@](C)(OC)C[C@@H](C)C(=O)[C@H](C)[C@H]2[C@@H](SCC(=O)Nc3ccccc3-c3ccccc3OC)C(=O)O[C@@]21C (single isomer, unassigned) [Example 53]	16 µg/mL (≈ 18.1 µM)	8 µg/mL (≈ 9.06 µM)	16 µg/mL (≈ 18.1 µM)	8 µg/mL (≈ 9.06 µM)	>32 µg/mL	0.5 µg/mL (≈ 0.566 µM)	>32 µg/mL	16 µg/mL (≈ 18.1 µM)	<=0.06 μg/ml	>32 µg/mL	0.25 µg/mL (≈ 0.283 µM)	1 µg/mL (≈ 1.13 µM)	
